Molecules are shown by their SMILES.

The nature of the series: gradient 5% acetonitrile 3 min, to 50% in 2 min, to 85% in 15 min, held 3 min, 100 µL/min. The following applies: column: Zorbax Extend-C18 2.1 x 50 mm; eluents: water / acetonitrile, 0.1% formic acid. The method in brief: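 Pure standards were analyzed in mixtures of ~100 molecules using HPLC coupled to a quadrupole time-of-flight mass spectrometer, in both positive and negative ionization mode. Separation used a Zorbax Extend-C18 column (2.1 × 50 mm, 1.8 μm) at 100 μL/min, with water and acetonitrile each containing 0.1% formic acid. Dead and dwell volumes were 40 μL and 900 μL, and data were collected over 3 months. Retention time was read from computationally picked adduct peaks, each inspected manually.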
With `Cc1cc(C)cc(OCc2nc(CCN(C)C(=O)c3ccco3)no2)c1`, the RP-LC retention time is 873 s. `Cc1cccc(-c2nc3sc(N4CCCCC4)nn3c2NC(=O)C2CC2)c1`: the RP-LC retention time is 891 s.

The molecule `Cn1nc(-c2nc(-c3ccccc3F)no2)c2c1CCN(C(=O)C1(c3ccccc3)CC1)C2` displayed an RP-LC retention time of 1010 s. For the molecule `Cc1c(C(=O)N2CCN(C)CC2)cnn1-c1cc(-c2nc(C3CC3)no2)ccn1`, the RP-LC retention time is 630 s. For `CCn1cc(-c2nc(-c3ccc(OC(C)C)cc3)no2)c(=O)c2cc(F)c(N3CCOCC3)cc21` the value was 1050 s. The result for `Cc1cc(N2CCN(C(=O)c3cccc(F)c3)CC2)nc(N2CCCCC2)n1` reads 670 s; that for `CCOc1ccc(NC(=O)N(Cc2cccs2)C2CCN(CC)CC2)cc1`, 653 s. Take `Cc1ccc(S(=O)(=O)N(CCN2CCCCC2C)CC(=O)N2CCNCC2)c(C)c1` (configuration not stated): the RP-LC retention time was found to be 588 s. Consider `O=C(CC1CCCC1)NCCc1nc2cccnc2n1-c1ccccc1`, for which the RP-LC retention time stood at 736 s. In turn, `O=C(c1ccco1)N1CCN(c2ccc(=O)n(-c3ccc(Cl)cc3)n2)CC1` returned an RP-LC retention time of 768 s. The result for `NC(=O)C1CCN(S(=O)(=O)Cc2c(F)cccc2Cl)CC1` reads 649 s. As for `Cc1ccc2nc(C)c(NC(=O)C3c4ccccc4Oc4ccccc43)c(=O)n2c1`, the RP-LC retention time worked out at 710 s. In turn, `COc1ccc(NC(=O)N2CCC3(C2)C(=O)Nc2ccccc23)c(OC)c1` (configuration not stated) gave an RP-LC retention time of 678 s. Turning to `COc1cc(=O)n2c(c1C(=O)Nc1ccc3c(c1)OCCO3)CCCC2`, the RP-LC retention time amounted to 647 s. For `Cn1ncc2c(N3CCSCC3)nc(C(=O)NCCc3ccccn3)nc21` the value was 572 s; for `Cc1ccc(N2CC(C(=O)NCCn3cnc(-c4ccccc4)cc3=O)CC2=O)cc1C` (configuration not stated), 689 s; for `Cc1cc(C)c2c(N3CCOCC3)nc(C(=O)NCc3cccc(F)c3)nc2n1`, 639 s. In the case of `CCn1cc(CN2CCC(C(=O)NCc3ccc(C)cc3)CC2)c2cc(OC)ccc21`, the RP-LC retention time was 720 s. Molecule `CN(C(=O)c1cc2c(=O)n(C)c(=O)n(C)c2s1)c1cccc(Cl)c1` yielded an RP-LC retention time of 827 s.

As to `COc1ccc(NC(=O)Cn2c(N3CCCCC3)nc(C)cc2=O)c(OC)c1`, the RP-LC retention time stood at 680 s. The molecule `O=C(CN1CCc2ccccc2C1C(=O)N1CCCCC1)NCc1ccc(F)c(Cl)c1` (configuration not stated) returned an RP-LC retention time of 936 s. The molecule `O=S(=O)(c1ccccc1Cl)N1CCc2nc(-c3ccc(F)cc3)ncc2C1` displayed an RP-LC retention time of 1100 s.

In turn, `CCn1c(C(=O)N2CCN(c3ccccc3F)CC2)cc2c(-c3cccs3)nn(-c3ccccc3)c21` gave an RP-LC retention time of 1270 s. Consider `Cc1ccc(CNC(=O)CCc2conc2-c2ccccc2)cc1`, for which the RP-LC retention time turned out to be 896 s.

As for `CCC(=O)N(C1CCOCC1)C1CCN(S(=O)(=O)c2ccc(F)cc2F)CC1`, the RP-LC retention time stood at 998 s. Consider `Cn1c(=O)c2nc(SCCC(=O)Nc3c(F)cccc3F)n(C)c2n(C)c1=O`, for which the RP-LC retention time was 706 s.

`CC(C)NC(=O)c1c2c(cn(-c3ccc(F)cc3)c1=O)C(=O)CC(C)(C)C2` returned an RP-LC retention time of 869 s. The result for `O=C(C1CCN(c2cncnc2N2CCCCC2)CC1)N1CCN(C2CCCCC2)CC1` reads 557 s; that for `O=C(Cn1nc2nc(Nc3ccc(F)cc3)ccn2c1=O)N1CCOCC1`, 631 s; that for `COCc1cc2nn(CC(=O)Nc3cccc(C)c3)c(=O)n2c(-c2ccccc2)n1`, 905 s. With `COC[C@@H]1CN(Cc2ccc(Cl)c(F)c2)C[C@H]1c1nc(C)no1`, the RP-LC retention time came to 645 s. Molecule `COc1ccccc1-c1cnn2c(C)cc(C)nc12` yielded an RP-LC retention time of 862 s.

The values above are taken from the METLIN SMRT retention time set (Domingo-Almenara et al. 2019).
